Like-named read-outs stand apart in the source and are kept apart here.
What was measured:
[1] = system: HUVECs; experiment: High-content imaging cytotoxicity in HUVECs, 24 h; type: cell-based, human; details: Homo sapiens, HUVEC, 24 h; for viability at 0.01 µM / activity at 0.01 µM / viability at 0.1 µM / activity at 0.1 µM / viability at 1 µM / activity at 1 µM / viability at 10 µM / activity at 10 µM / viability at 100 µM / activity at 100 µM: 0.00 µM = 100.00; for viability at 0.1 µM / activity at 0.1 µM: 0.10 µM
Procedure, shortened: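 Point-of-departure values come from four-parameter logistic fits of vehicle-normalized (0.5% DMSO) imaging readouts, cutoff one SD of vehicle means, 100μM where no concentration–response. Cells: HUVEC monolayers, passages 1–5, treated 24 h at 37°C, 5% CO2, then Hoechst 33342/MitoTracker Orange/calcein AM stained, imaged at 10×.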

[2] = system: iCell endothelial cells (human iPSC-derived ECs); experiment: High-content imaging cytotoxicity in iCell endothelial cells, 24 h; type: cell-based; details: Homo sapiens, Endothelial cell, 24 hr; for viability at 0.1 µM / activity at 0.1 µM: 0.10 µM
Procedure, shortened: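 Readouts were vehicle-normalised and fitted to a four-parameter logistic model. POD was set at one SD beyond 0.5% DMSO control means, and 100 µM was assigned when no response was seen. Cells were monolayers of iCell endothelial cells imaged after 24 h compound exposure using nuclear, mitochondrial and calcein dyes.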

[3] = HUVECs, 24 hr, read-out: huvec.cyto.24hr
[4] = HUVECs, 24 hr, read-out: huvec.mito.24hr
[5] = HUVECs, 24 hr, read-out: huvec.mitoint.24hr
[6] = HUVECs, 24 hr, read-out: huvec.nma.24hr
[7] = HUVECs, 24 hrs, read-out: huvec.tc.24hrs
[8] = iPSC-EC, 0.00 µM control = 100.00, read-out: endo.cyto.24hr
[9] = iPSC-EC, 0.00 µM control = 100.00, read-out: endo.mito.24hr
[10] = iPSC-EC, 0.00 µM control = 100.00, read-out: endo.mitoint.24hr
[11] = iPSC-EC, 0.00 µM control = 100.00, read-out: endo.nma.24hr
[12] = iPSC-EC, 0.00 µM control = 100.00, read-out: endo.tc.24hrs

`COc1ccc(-c2ccc(Cl)cc2)cc1` [4'-OMe PCB3] showed a viability at 0.01 µM [1, 3] of 87.9%, an activity at 0.01 µM [1, 4] of 86.7% and an activity at 0.01 µM [1, 5] of 91.6%. The activity at 0.01 µM [1, 6] was 101%, the viability at 0.1 µM [1, 3] was 99.3% and the activity at 0.1 µM [1, 4] was 98.5%. For the same compound, the activity at 0.1 µM [1, 5] was 97.3%, the activity at 0.1 µM [1, 6] was 98.2% and the viability at 1 µM [1, 3] was 94.1%. It also gave an activity at 1 µM [1, 4] of 93.8%, an activity at 1 µM [1, 5] of 91% and an activity at 1 µM [1, 6] of 96.4%. The viability at 10 µM [1, 3] was 94.1%, the activity at 10 µM [1, 4] was 92.9% and the activity at 10 µM [1, 5] was 94%. The activity at 10 µM [1, 6] was 92.3%, the viability at 100 µM [1, 3] was 70.2% and the activity at 100 µM [1, 4] was 70.1%. For the same compound, the activity at 100 µM [1, 6] was 73.7%, the minimal effective concentration ([1]; HUVECs, 24 hr, top concentration 100.00 µM, read-out: huvec.cyto.24hr POD) was 8.6 µM and the minimal effective concentration ([1]; HUVECs, 24 hr, top concentration 100.00 µM, read-out: huvec.mito.24hr POD) was 5.97 µM. For the same compound, the minimal effective concentration ([1]; HUVECs, 24 hr, top concentration 100.00 µM, read-out: huvec.mitoint.24hr POD) was 32 µM, the minimal effective concentration ([1]; HUVECs, 24 hr, top concentration 100.00 µM, read-out: huvec.nma.24hr POD) was 1.41 µM and the viability at 0.01 µM [1, 7] was 87.9%. It also gave a viability at 0.1 µM [1, 7] of 99.3%, a viability at 1 µM [1, 7] of 94.1% and a viability at 10 µM [1, 7] of 94.1%. For the same compound, the viability at 100 µM [1, 7] was 70.2%, the minimal effective concentration ([1]; HUVECs, 24 hrs, top concentration 100.00 µM, read-out: huvec.tc.24hrs POD) was 8.6 µM and the viability at 0.01 µM [2, 8] was 93.4%. For the same compound, the activity at 0.01 µM [2, 9] was 93.4%, the activity at 0.01 µM [2, 10] was 107% and the activity at 0.01 µM [2, 11] was 105%. It also gave a viability at 0.01 µM [2, 12] of 93.4%, a viability at 0.1 µM [2, 8] of 103% and an activity at 0.1 µM [2, 9] of 103%. For the same compound, the activity at 0.1 µM [2, 10] was 99.7%, the activity at 0.1 µM [2, 11] was 98.5% and the viability at 0.1 µM [2, 12] was 103%. It also gave a viability at 1 µM [2, 8] of 95.6%, an activity at 1 µM [2, 9] of 96% and an activity at 1 µM [2, 10] of 102%. The activity at 1 µM [2, 11] was 102%, the viability at 1 µM [2, 12] was 95.6% and the viability at 10 µM [2, 8] was 108%. The activity at 10 µM [2, 9] was 109%, the activity at 10 µM [2, 10] was 107% and the activity at 10 µM [2, 11] was 95%. For the same compound, the viability at 10 µM [2, 12] was 108%, the viability at 100 µM [2, 8] was 93.3% and the activity at 100 µM [2, 9] was 93.7%. The activity at 100 µM [2, 10] was 119%, the activity at 100 µM [2, 11] was 99.7% and the viability at 100 µM [2, 12] was 93.5%. It also gave a minimal effective concentration ([2]; iPSC-EC, top concentration 100.00 µM, read-out: endo.cyto.24hr POD) of 100 µM, a minimal effective concentration ([2]; iPSC-EC, top concentration 100.00 µM, read-out: endo.mito.24hr POD) of 100 µM and a minimal effective concentration ([2]; iPSC-EC, top concentration 100.00 µM, read-out: endo.mitoint.24hr POD) of 20.5 µM. For the same compound, the minimal effective concentration ([2]; iPSC-EC, top concentration 100.00 µM, read-out: endo.nma.24hr POD) was 100 µM and the minimal effective concentration ([2]; iPSC-EC, top concentration 100.00 µM, read-out: endo.tc.24hrs POD) was 100 µM.
`COc1ccc(-c2ccc(Cl)cc2)cc1` [4'-OMe-PCB 3, 4′-methoxy-4-chlorobiphenyl] showed a minimal effective concentration ([1]; cyto, 24 hr, read-out: POD huvec.cyto.24hr) of 8.6 µM, a minimal effective concentration ([1]; mito, 24 hr, read-out: POD huvec.mito.24hr) of 5.97 µM and a minimal effective concentration ([1]; mitoint, 24 hr, read-out: POD huvec.mitoint.24hr) of 32 µM. For the same compound, the minimal effective concentration ([1]; nma, 24 hr, read-out: POD huvec.nma.24hr) was 1.41 µM, the minimal effective concentration ([1]; tc, 24 hr, read-out: POD huvec.tc.24hr) was 8.6 µM and the minimal effective concentration ([2]; endothelial cells (endo), cyto, read-out: POD endo.cyto.24hr) was 100 µM. For the same compound, the minimal effective concentration ([2]; endothelial cells (endo), mito, read-out: POD endo.mito.24hr) was 100 µM, the minimal effective concentration ([2]; endothelial cells (endo), mitoint, read-out: POD endo.mitoint.24hr) was 20.5 µM and the minimal effective concentration ([2]; endothelial cells (endo), nma, read-out: POD endo.nma.24hr) was 100 µM. It also gave a minimal effective concentration ([2]; endothelial cells (endo), tc, read-out: POD endo.tc.24hr) of 100 µM.
